{"source": "the supplement of paper PMC10307832", "test_in_all_cases": "relative viability (nuclei count vs DMSO), 5 days (fraction); higher = more cells survive", "key": {"[1]": {"system": "NCI-H322M", "in_short": "(§1)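 Lung cancer cell lines in 1536-well plates were dosed by pin tool the day after seeding, either with one drug alone or with a fixed anchor-drug dose plus five library-drug doses (not always all listed) in √10 steps. After 5 days, cells were fixed and their nuclei stained in one step (final 0.05% Triton X-100, 1% formaldehyde, 1 ug/ml Hoechst), then counted on 4× images. Relative viability is the nuclei count in treated wells divided by that in vehicle wells. Values are medians of duplicate plates.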"}, "[2]": {"system": "EKVX", "in_short": "as §1"}, "[3]": {"system": "NCI-H2405", "in_short": "as §1"}, "[4]": {"system": "NCI-H661", "in_short": "as §1"}, "[5]": {"system": "ABC-1", "in_short": "as §1"}, "[6]": {"system": "LK-2", "in_short": "as §1"}, "[7]": {"system": "NCI-H2228", "in_short": "as §1"}, "[8]": {"system": "NCI-H1734", "in_short": "as §1"}, "[9]": {"system": "CAL-12T", "in_short": "as §1"}, "[10]": {"system": "SW 1573", "in_short": "as §1"}, "[11]": {"system": "NCI-H2342", "in_short": "as §1"}, "[12]": {"system": "NCI-H520", "in_short": "as §1"}, "[13]": {"system": "COR-L23", "in_short": "as §1"}, "[14]": {"system": "NCI-H1355", "in_short": "as §1"}, "[15]": {"system": "PC-14", "in_short": "as §1"}, "[16]": {"system": "HCC-827", "in_short": "as §1"}, "[17]": {"system": "RERF-LC-KJ", "in_short": "as §1"}, "[18]": {"system": "NCI-H1437", "in_short": "as §1"}, "[19]": {"system": "NCI-H1650", "in_short": "as §1"}, "[20]": {"system": "H3255", "in_short": "as §1"}, "[21]": {"system": "HCC-15", "in_short": "as §1"}, "[22]": {"system": "PC-3 [JPC-3]", "in_short": "as §1"}}}
{"smiles": "O=C(O)c1ccc(-c2c[nH]c3ncc(-c4ccccc4)cc23)cc1C1CCCC1", "note": "+ CC(=O)c1c(C)c2cnc(Nc3ccc(N4CCNCC4)cn3)nc2n(C2CCCC2)c1=O [Palbociclib] (partner 0.5 µM)", "values": [{"measurement": "relative viability", "setting": "[1]; first compound 0.04 µM", "result": 0.466}, {"measurement": "relative viability", "setting": "[1]; first compound 0.1265 µM", "result": 0.461}, {"measurement": "relative viability", "setting": "[1]; first compound 0.4 µM", "result": 0.448}, {"measurement": "relative viability", "setting": "[1]; first compound 1.265 µM", "result": 0.461}, {"measurement": "relative viability", "setting": "[2]; first compound 0.04 µM", "result": 0.444}, {"measurement": "relative viability", "setting": "[2]; first compound 0.1265 µM", "result": 0.379}, {"measurement": "relative viability", "setting": "[2]; first compound 0.4 µM", "result": 0.233}, {"measurement": "relative viability", "setting": "[2]; first compound 1.265 µM", "result": 0.362}, {"measurement": "relative viability", "setting": "[3]; first compound 0.04 µM", "result": 0.529}, {"measurement": "relative viability", "setting": "[3]; first compound 0.1265 µM", "result": 0.557}, {"measurement": "relative viability", "setting": "[3]; first compound 0.4 µM", "result": 0.517}, {"measurement": "relative viability", "setting": "[3]; first compound 1.265 µM", "result": 0.473}, {"measurement": "relative viability", "setting": "[4]; first compound 0.04 µM", "result": 0.414}, {"measurement": "relative viability", "setting": "[4]; first compound 0.1265 µM", "result": 0.411}, {"measurement": "relative viability", "setting": "[4]; first compound 0.4 µM", "result": 0.406}, {"measurement": "relative viability", "setting": "[4]; first compound 1.265 µM", "result": 0.389}, {"measurement": "relative viability", "setting": "[5]; first compound 0.04 µM", "result": 0.674}, {"measurement": "relative viability", "setting": "[5]; first compound 0.1265 µM", "result": 0.892}, {"measurement": "relative viability", "setting": "[5]; first compound 0.4 µM", "result": 0.551}, {"measurement": "relative viability", "setting": "[5]; first compound 1.265 µM", "result": 0.742}, {"measurement": "relative viability", "setting": "[6]; first compound 0.04 µM", "result": 0.826}, {"measurement": "relative viability", "setting": "[6]; first compound 0.1265 µM", "result": 0.768}, {"measurement": "relative viability", "setting": "[6]; first compound 0.4 µM", "result": 0.771}, {"measurement": "relative viability", "setting": "[6]; first compound 1.265 µM", "result": 0.646}, {"measurement": "relative viability", "setting": "[7]; first compound 0.04 µM", "result": 0.885}, {"measurement": "relative viability", "setting": "[7]; first compound 0.1265 µM", "result": 0.736}, {"measurement": "relative viability", "setting": "[7]; first compound 0.4 µM", "result": 0.886}, {"measurement": "relative viability", "setting": "[7]; first compound 1.265 µM", "result": 0.5}, {"measurement": "relative viability", "setting": "[8]; first compound 0.04 µM", "result": 0.324}, {"measurement": "relative viability", "setting": "[8]; first compound 0.1265 µM", "result": 0.328}, {"measurement": "relative viability", "setting": "[8]; first compound 0.4 µM", "result": 0.302}, {"measurement": "relative viability", "setting": "[8]; first compound 1.265 µM", "result": 0.344}, {"measurement": "relative viability", "setting": "[9]; first compound 0.04 µM", "result": 0.496}, {"measurement": "relative viability", "setting": "[9]; first compound 0.1265 µM", "result": 0.442}, {"measurement": "relative viability", "setting": "[9]; first compound 0.4 µM", "result": 0.499}, {"measurement": "relative viability", "setting": "[9]; first compound 1.265 µM", "result": 0.384}, {"measurement": "relative viability", "setting": "[10]; first compound 0.04 µM", "result": 0.442}, {"measurement": "relative viability", "setting": "[10]; first compound 0.1265 µM", "result": 0.355}, {"measurement": "relative viability", "setting": "[10]; first compound 0.4 µM", "result": 0.309}, {"measurement": "relative viability", "setting": "[10]; first compound 1.265 µM", "result": 0.268}, {"measurement": "relative viability", "setting": "[11]; first compound 0.04 µM", "result": 0.465}, {"measurement": "relative viability", "setting": "[11]; first compound 0.1265 µM", "result": 0.568}, {"measurement": "relative viability", "setting": "[11]; first compound 0.4 µM", "result": 0.479}, {"measurement": "relative viability", "setting": "[11]; first compound 1.265 µM", "result": 0.517}, {"measurement": "relative viability", "setting": "[12]; first compound 0.04 µM", "result": 0.192}, {"measurement": "relative viability", "setting": "[12]; first compound 0.1265 µM", "result": 0.217}, {"measurement": "relative viability", "setting": "[12]; first compound 0.4 µM", "result": 0.226}, {"measurement": "relative viability", "setting": "[12]; first compound 1.265 µM", "result": 0.182}, {"measurement": "relative viability", "setting": "[13]; first compound 0.04 µM", "result": 0.296}, {"measurement": "relative viability", "setting": "[13]; first compound 0.1265 µM", "result": 0.326}, {"measurement": "relative viability", "setting": "[13]; first compound 0.4 µM", "result": 0.308}, {"measurement": "relative viability", "setting": "[13]; first compound 1.265 µM", "result": 0.205}, {"measurement": "relative viability", "setting": "[14]; first compound 0.04 µM", "result": 0.393}, {"measurement": "relative viability", "setting": "[14]; first compound 0.1265 µM", "result": 0.406}, {"measurement": "relative viability", "setting": "[14]; first compound 0.4 µM", "result": 0.407}, {"measurement": "relative viability", "setting": "[14]; first compound 1.265 µM", "result": 0.395}, {"measurement": "relative viability", "setting": "[15]; first compound 0.04 µM", "result": 0.473}, {"measurement": "relative viability", "setting": "[15]; first compound 0.1265 µM", "result": 0.532}, {"measurement": "relative viability", "setting": "[15]; first compound 0.4 µM", "result": 0.396}, {"measurement": "relative viability", "setting": "[15]; first compound 1.265 µM", "result": 0.486}, {"measurement": "relative viability", "setting": "[16]; first compound 0.04 µM", "result": 0.354}, {"measurement": "relative viability", "setting": "[16]; first compound 0.1265 µM", "result": 0.474}, {"measurement": "relative viability", "setting": "[16]; first compound 0.4 µM", "result": 0.434}, {"measurement": "relative viability", "setting": "[16]; first compound 1.265 µM", "result": 0.328}, {"measurement": "relative viability", "setting": "[17]; first compound 0.04 µM", "result": 1.01}, {"measurement": "relative viability", "setting": "[17]; first compound 0.1265 µM", "result": 1.02}, {"measurement": "relative viability", "setting": "[17]; first compound 0.4 µM", "result": 0.97}, {"measurement": "relative viability", "setting": "[17]; first compound 1.265 µM", "result": 0.875}, {"measurement": "relative viability", "setting": "[18]; first compound 0.04 µM", "result": 0.326}, {"measurement": "relative viability", "setting": "[18]; first compound 0.1265 µM", "result": 0.319}, {"measurement": "relative viability", "setting": "[18]; first compound 0.4 µM", "result": 0.311}, {"measurement": "relative viability", "setting": "[18]; first compound 1.265 µM", "result": 0.193}, {"measurement": "relative viability", "setting": "[19]; first compound 0.04 µM", "result": 0.34}, {"measurement": "relative viability", "setting": "[19]; first compound 0.1265 µM", "result": 0.285}, {"measurement": "relative viability", "setting": "[19]; first compound 0.4 µM", "result": 0.321}, {"measurement": "relative viability", "setting": "[19]; first compound 1.265 µM", "result": 0.193}, {"measurement": "relative viability", "setting": "[20]; first compound 0.04 µM", "result": 0.303}, {"measurement": "relative viability", "setting": "[20]; first compound 0.1265 µM", "result": 0.325}, {"measurement": "relative viability", "setting": "[20]; first compound 0.4 µM", "result": 0.286}, {"measurement": "relative viability", "setting": "[20]; first compound 1.265 µM", "result": 0.312}, {"measurement": "relative viability", "setting": "[21]; first compound 0.04 µM", "result": 0.793}, {"measurement": "relative viability", "setting": "[21]; first compound 0.1265 µM", "result": 0.762}, {"measurement": "relative viability", "setting": "[21]; first compound 0.4 µM", "result": 0.631}, {"measurement": "relative viability", "setting": "[21]; first compound 1.265 µM", "result": 0.431}, {"measurement": "relative viability", "setting": "[22]; first compound 0.04 µM", "result": 0.534}, {"measurement": "relative viability", "setting": "[22]; first compound 0.1265 µM", "result": 0.553}, {"measurement": "relative viability", "setting": "[22]; first compound 0.4 µM", "result": 0.538}, {"measurement": "relative viability", "setting": "[22]; first compound 1.265 µM", "result": 0.499}]}
